Assay results as given in patent publication US20210038547A1, “NEW USES AND APPLICATIONS OF DICARBOXYLIC ACIDS” (JEMYLL LIMITED, priority 2017, published 2021).

How the values were obtained:
oat = test: Hydroponic oat grown with C12 in the water medium: grain composition; settings: 10 g C12/L of water (10% C12)
Description: (§1) Hydroponic barley and oat grass was growth in fodder sprouting chambers at 21.5 to 23.5° C., with humidity of 65±5% and water temperature between 20° and 22° C. Grains were soaked in water until fully saturated, then drained and placed in trays or troughs, to facilitate sprouting, for 5 to 8 days. The grains were kept moist during this period. Grains were initially washed with a sterilizing solution to help minimize the risk of mold. Grass were provided with […] from day 3. C12 (0.1% as acid, 14.9% as potassium salt, 60% as sodium salt, and 25% as calcium salt) was added to the water medium in different concentrations, varying from 0%, to 2.5%, 5%, 10%, 15% and 20%. We measured grain composition at 10 g C12 in 1 L of water.

[1] = tested on: Hy-Line Brown laying hens; test: Laying hens fed a standard diet or a diet enriched with C12 (10%): egg productivity, egg quality, yolk cholesterol; format: in vivo
Description: Thirty Hy-Line Brown laying hens, 18 weeks of age, were free range-raised under natural light and dark cycle. The hens were divided into 2 groups and housed in different indoor pens (0.15 m^2/bird) equipped with feeders and drinkers, with access to open air runs (3 m^2/bird).
The diets were based on wheat and soybean meal with added dodecanedioic acid (C12) at 10% in the DAs diet, while they were free of dodecanedioic acid in the control diet. The diets were isocaloric and isonitrogenous containing 17.0% of crude protein (CP) and 2,680 kcal of metabolizable energy/kg of diet, in fact they were designed to meet or exceed the nutrient requirements for laying hens. The experimental diet was fed to the animals for 12 weeks. Feed and water were provided ad libitum throughout the entire trial.
Hens mortality or morbidity were recorded if occurred. Eggs were collected daily and egg production was calculated on per hen and per day basis. Eggs with any adhering manure were classified as dirty, and the percentage was then calculated.
Eggs were analyzed for interior and exterior physical quality, and were also examined for shell quality by specific gravity. Shell thickness (with shell membrane) of the eggs (10% of the daily egg produced) was measured by micrometer. Shell thickness was a mean value of measurements at 3 locations on the eggs (air cell; equator; and, sharp end). The breaking strength of untracked eggs was determined with a testing machine (model 1140, Instron Ltd., Bucks, UK). Egg components (albumen; yolk; and, shell) were measured by weekly breakouts on two eggs per replicate pen and expressed as percentage of egg weight.
Egg yolk color was scored using the 15-point scale (color scale from 15, dark orange to 1, light pale) of the DSM yolk color fan (DSM Nutritional Products Ltd., Basel, Switzerland).
The yolk cholesterol concentrations were determined by sampling weekly egg yolks (1 g) saponified with 20 ml of 33% ethanolic KOH in tightly-capped tubes placed in a 60° C. water bath for 1 hour. The mixture was then cooled in ice water, and 5 ml of distilled water was added. Cholesterol in unsaponifiable fractions was extracted twice with 5 ml of hexane. The resulting aliquot of hexane containing cholesterol was dried under nitrogen, re-dissolved in 5 ml of hexane, and injected into a gas chromatograph (Hewlett Packard, Palo Alto, Calif., Palo Alto, Calif., USA).
5 α-cholestane (Sigma-Aldrich) was used as an internal standard. A split inlet (using a split ratio of 100:1) was used to inject samples into a capillary column (HP-5, Agilent, Steven, Calif., USA; 30 m×0.53 mm×0.5 μm). Temperature conditions were as follows: […] oven temperature of 270° C. isothermal; detector temperature of 300° C.; and, inlet temperature of 210° C. The gas carrier was N2 kept at a constant flow rate of 1.0 ml/min.
Data were analyzed using the statistical package SPSS 13. Comparisons were made by the Mann Whitney U test since data were not normally distributed.

barley = test: Hydroponic barley grown with C12 in the water medium: grain composition; settings: 10 g C12/L of water (10% C12)
Description: as §1

## O=C(O)CCCCCCCCCCC(=O)O [C12, dodecanedioic acid]
oat
  Ash %: 4.06 ± 0.59%
  Crude Fibre %: 23.40 ± 4.04%
  Crude Protein %: 18.70 ± 2.28%
  Dry matter (%): 90.00 ± 5.70%
  Starch %: 31.80 ± 8.11%
[1]; 10% C12 enriched diet vs standard diet
  Yolk color: lighter color of the yolk
[1]; 12 weeks of feeding
  Hen mortality or morbidity: No hen mortality or morbidity was observed
[1]; diet with 10% C12 for 12 weeks
  Dirty eggs (%): 0.38 ± 0.14%
  Egg mass (g/hen per day): 54.56 ± 5.66 g/hen per day
  Egg-laying rate (%): 90.30 ± 4.99%
[1]; diet with 10% C12 for 12 weeks, egg yolk, gas chromatography, FIG. 3: per 100 g of egg, in mg/100 g egg
  Cholesterol content: 87.00 ± 14.27
[1]; diet with 10% C12 for 12 weeks, mean of 3 locations, with shell membrane
  Shell thickness (mm × 10^−2): 0.38 ± 0.037 mm × 10^−2
[1]; female, Hy-Line Brown, hen (chicken), in vivo, 12 weeks
  content of C12 in a yolk: in a yolk ranged between 0.35 and 2.1 mg.
barley
  Ash %: 3.40 ± 0.48%
  Crude Fibre %: 4.42 ± 0.38%
  Crude Protein %: 16.20 ± 0.62%
  Dry matter (%): 90.40 ± 1.14%
  Starch %: 44.40 ± 3.51%
